Results reported in ChEMBL document CHEMBL4371080, “Multiple weak intercalation as a strategy for the inhibition of polymerases” (Bioorg Med Chem Lett, 2019).
Where a SMILES comes first, the peptide text is derived from it. Bridges are numbered along the chain shown (N, C = ends). [ ]: non-standard residue; d: D form. The star is where a group is joined. ξ: configuration not given here. Quinoxaline2carbonyl = O=C(c1cnc2ccccc2n1)*; ξDap = NCC(N)C(=O)O

Each compound was assayed against Human immunodeficiency virus type 1 reverse transcriptase (Human immunodeficiency virus 1) (UniProt Q72547) (assay: Inhibition of HIV1 reverse transcriptase assessed as reduction in [3H]dTTP incorporation by measuring proportional residual activity ratio at 20 uM using poly(rA)/oligo(dT) as template/primer after 30 mins by scintillation counting method relative to control).

In order of falling Ratio:
1. NCC1NC(=O)C[C@@H](C(N)=O)NC(=O)C(CNC(=O)c2cnc3ccccc3n2)NC(=O)C(CNC(=O)c2cnc3ccccc3n2)NC(=O)CNC(=O)CNC(=O)CNC1=O (stereo partly drawn) ([ξDap]GGG[ξDap](Quinoxaline2carbonyl)[ξDap](Quinoxaline2carbonyl)D-NH2; lactam N-7)  0.71
2. NCC1NC(=O)C[C@@H](C(N)=O)NC(=O)CNC(=O)C(CNC(=O)c2cnc3ccccc3n2)NC(=O)C(CNC(=O)c2cnc3ccccc3n2)NC(=O)CNC(=O)CNC1=O (some centres not stated) ([ξDap]GG[ξDap](Quinoxaline2carbonyl)[ξDap](Quinoxaline2carbonyl)GD-NH2; lactam N-7)  0.57
3. NCC1NC(=O)C[C@@H](C(N)=O)NC(=O)CNC(=O)CNC(=O)C(CNC(=O)c2cnc3ccccc3n2)NC(=O)C(CNC(=O)c2cnc3ccccc3n2)NC(=O)CNC1=O (some centres not stated) ([ξDap]G[ξDap](Quinoxaline2carbonyl)[ξDap](Quinoxaline2carbonyl)GGD-NH2; lactam N-7)  0.38
4. NCC1NC(=O)C[C@@H](C(N)=O)NC(=O)C(CNC(=O)c2cnc3ccccc3n2)NC(=O)CNC(=O)C(CNC(=O)c2cnc3ccccc3n2)NC(=O)CNC(=O)C(CNC(=O)c2cnc3ccccc3n2)NC1=O (stereo partly drawn) ([ξDap][ξDap](Quinoxaline2carbonyl)G[ξDap](Quinoxaline2carbonyl)G[ξDap](Quinoxaline2carbonyl)D-NH2; lactam N-7)  0.18
5. NCC1NC(=O)C[C@@H](C(N)=O)NC(=O)C(CNC(=O)c2cnc3ccccc3n2)NC(=O)C(CNC(=O)c2cnc3ccccc3n2)NC(=O)C(CNC(=O)c2cnc3ccccc3n2)NC(=O)CNC(=O)CNC1=O (stereo partly drawn) ([ξDap]GG[ξDap](Quinoxaline2carbonyl)[ξDap](Quinoxaline2carbonyl)[ξDap](Quinoxaline2carbonyl)D-NH2; lactam N-7)  0.16
6. NCC1NC(=O)C[C@@H](C(N)=O)NC(=O)C(CNC(=O)c2cnc3ccccc3n2)NC(=O)C(CNC(=O)c2cnc3ccccc3n2)NC(=O)CNC(=O)C(CNC(=O)c2cnc3ccccc3n2)NC(=O)CNC1=O (stereo partly drawn) ([ξDap]G[ξDap](Quinoxaline2carbonyl)G[ξDap](Quinoxaline2carbonyl)[ξDap](Quinoxaline2carbonyl)D-NH2; lactam N-7)  0.15
7. NCC1NC(=O)C[C@@H](C(N)=O)NC(=O)C(CNC(=O)c2cnc3ccccc3n2)NC(=O)CNC(=O)C(CNC(=O)c2cnc3ccccc3n2)NC(=O)C(CNC(=O)c2cnc3ccccc3n2)NC(=O)CNC1=O (stereo partly drawn) ([ξDap]G[ξDap](Quinoxaline2carbonyl)[ξDap](Quinoxaline2carbonyl)G[ξDap](Quinoxaline2carbonyl)D-NH2; lactam N-7)  0.14
8. NCC1NC(=O)C[C@@H](C(N)=O)NC(=O)C(CNC(=O)c2cnc3ccccc3n2)NC(=O)CNC(=O)CNC(=O)C(CNC(=O)c2cnc3ccccc3n2)NC(=O)CNC1=O (stereo partly drawn) ([ξDap]G[ξDap](Quinoxaline2carbonyl)GG[ξDap](Quinoxaline2carbonyl)D-NH2; lactam N-7)  0.13
9. NCC1NC(=O)C[C@@H](C(N)=O)NC(=O)CNC(=O)C(CNC(=O)c2cnc3ccccc3n2)NC(=O)CNC(=O)C(CNC(=O)c2cnc3ccccc3n2)NC(=O)CNC1=O (some centres not stated) ([ξDap]G[ξDap](Quinoxaline2carbonyl)G[ξDap](Quinoxaline2carbonyl)GD-NH2; lactam N-7)  0.09
10. NCC1NC(=O)C[C@@H](C(N)=O)NC(=O)CNC(=O)C(CNC(=O)c2cnc3ccccc3n2)NC(=O)C(CNC(=O)c2cnc3ccccc3n2)NC(=O)C(CNC(=O)c2cnc3ccccc3n2)NC(=O)CNC1=O (some centres not stated) ([ξDap]G[ξDap](Quinoxaline2carbonyl)[ξDap](Quinoxaline2carbonyl)[ξDap](Quinoxaline2carbonyl)GD-NH2; lactam N-7)  0.08
11. NCC1NC(=O)C[C@@H](C(N)=O)NC(=O)CNC(=O)CNC(=O)C(CNC(=O)c2cnc3ccccc3n2)NC(=O)C(CNC(=O)c2cnc3ccccc3n2)NC(=O)C(CNC(=O)c2cnc3ccccc3n2)NC1=O (some centres not stated) ([ξDap][ξDap](Quinoxaline2carbonyl)[ξDap](Quinoxaline2carbonyl)[ξDap](Quinoxaline2carbonyl)GGD-NH2; lactam N-7)  0.04
12. NCC1NC(=O)C[C@@H](C(N)=O)NC(=O)CNC(=O)C(CNC(=O)c2cnc3ccccc3n2)NC(=O)CNC(=O)C(CNC(=O)c2cnc3ccccc3n2)NC(=O)C(CNC(=O)c2cnc3ccccc3n2)NC1=O (some centres not stated) ([ξDap][ξDap](Quinoxaline2carbonyl)[ξDap](Quinoxaline2carbonyl)G[ξDap](Quinoxaline2carbonyl)GD-NH2; lactam N-7)  0.03
13. NCC1NC(=O)C[C@@H](C(N)=O)NC(=O)CNC(=O)C(CNC(=O)c2cnc3ccccc3n2)NC(=O)CNC(=O)CNC(=O)C(CNC(=O)c2cnc3ccccc3n2)NC1=O (some centres not stated) ([ξDap][ξDap](Quinoxaline2carbonyl)GG[ξDap](Quinoxaline2carbonyl)GD-NH2; lactam N-7)  0.02

What follows are compounds tested against Human immunodeficiency virus type 1 reverse transcriptase (Human immunodeficiency virus 1) (UniProt Q72547) (assay: Inhibition of HIV1 reverse transcriptase assessed as reduction in [3H]dTTP incorporation by measuring proportional residual activity ratio at 300 uM using poly(rA)/oligo(dT) as template/primer after 30 mins by scintillation counting method).

In order of falling Ratio:
1. NC(=O)[C@@H](Cc1c[nH]c2ccccc12)NC(=O)CNC(=O)[C@H](N)Cc1c[nH]c2ccccc12  0.76
2. NC(=O)[C@@H](Cc1c[nH]c2ccccc12)NC(=O)CNC(=O)[C@@H](N)Cc1c[nH]c2ccccc12  0.74
3. NC(=O)[C@@H](Cc1c[nH]c2ccccc12)NC(=O)[C@H](N)Cc1c[nH]c2ccccc12  0.7
4. NC(=O)C[C@H](NC(=O)[C@H](N)Cc1c[nH]c2ccccc12)C(=O)N[C@H](Cc1c[nH]c2ccccc12)C(N)=O  0.69
5. NC(=O)C[C@H](NC(=O)[C@H](N)Cc1c[nH]c2ccccc12)C(=O)N[C@@H](Cc1c[nH]c2ccccc12)C(N)=O  0.69
6. NC(=O)[C@H](Cc1c[nH]c2ccccc12)NC(=O)[C@@H](N)Cc1c[nH]c2ccccc12  0.65
7. NC(=O)[C@H](Cc1c[nH]c2ccccc12)NC(=O)CNC(=O)[C@H](N)Cc1c[nH]c2ccccc12  0.63
8. NC(=O)C[C@H](NC(=O)[C@@H](N)Cc1c[nH]c2ccccc12)C(=O)N[C@@H](Cc1c[nH]c2ccccc12)C(N)=O  0.62
9. NC(=O)[C@H](Cc1c[nH]c2ccccc12)NC(=O)[C@H](N)Cc1c[nH]c2ccccc12  0.61
10. NC(=O)C[C@@H](NC(=O)[C@@H](N)Cc1c[nH]c2ccccc12)C(=O)N[C@@H](Cc1c[nH]c2ccccc12)C(N)=O  0.6
11. NC(=O)C[C@@H](NC(=O)[C@H](N)Cc1c[nH]c2ccccc12)C(=O)N[C@H](Cc1c[nH]c2ccccc12)C(N)=O  0.47
12. NC(=O)[C@@H](Cc1c[nH]c2ccccc12)NC(=O)CCNC(=O)[C@@H](N)Cc1c[nH]c2ccccc12  0.46
13. NC(=O)[C@@H](Cc1c[nH]c2ccccc12)NC(=O)[C@@H](N)Cc1c[nH]c2ccccc12  0.45
14. NC(=O)C[C@H](NC(=O)[C@@H](N)Cc1c[nH]c2ccccc12)C(=O)N[C@H](Cc1c[nH]c2ccccc12)C(N)=O  0.44
15. NC(=O)[C@H](Cc1c[nH]c2ccccc12)NC(=O)CCCNC(=O)[C@H](N)Cc1c[nH]c2ccccc12  0.43
16. NC(=O)[C@H](Cc1c[nH]c2ccccc12)NC(=O)CNC(=O)[C@@H](N)Cc1c[nH]c2ccccc12  0.4
17. NC(=O)[C@@H](Cc1c[nH]c2ccccc12)NC(=O)CCCNC(=O)[C@H](N)Cc1c[nH]c2ccccc12  0.36
18. NC(=O)C[C@@H](NC(=O)[C@@H](N)Cc1c[nH]c2ccccc12)C(=O)N[C@H](Cc1c[nH]c2ccccc12)C(N)=O  0.35
19. NC(=O)C[C@@H](NC(=O)[C@H](N)Cc1c[nH]c2ccccc12)C(=O)N[C@@H](Cc1c[nH]c2ccccc12)C(N)=O  0.34
